This is an account of results in article PMC11873635 (Acta Pharmaceutica Sinica. B, 2024).

The first test addresses T1, human SMS2 (Homo sapiens, UniProt Q8NHU3).
T1 sequence (Q8NHU3 1-365): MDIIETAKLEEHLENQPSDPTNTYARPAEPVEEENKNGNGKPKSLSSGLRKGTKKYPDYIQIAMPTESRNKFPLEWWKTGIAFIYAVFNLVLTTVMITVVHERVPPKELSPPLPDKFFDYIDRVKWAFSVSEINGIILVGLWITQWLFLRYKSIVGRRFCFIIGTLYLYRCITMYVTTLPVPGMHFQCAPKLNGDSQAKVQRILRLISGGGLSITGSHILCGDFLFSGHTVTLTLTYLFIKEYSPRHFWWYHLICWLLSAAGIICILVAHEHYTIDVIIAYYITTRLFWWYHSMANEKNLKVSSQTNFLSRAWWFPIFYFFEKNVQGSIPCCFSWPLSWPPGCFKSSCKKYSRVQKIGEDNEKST
Kind of test: purified SMS enzyme inhibitory assay in vitro. The format is biochemical. The following applies: read-out: SMS2 Inhibition @ 1 μmol/L (%).
Turning to `Cc1ccc(NC(=O)c2sccc2OCc2ccccc2)cn1` [7h], the inhibition at 1 µM is -3%. Turning to `Cc1cc(OCc2ccccc2)c(C(=O)Nc2cccnc2)s1` [5c], the inhibition at 1 µM came to 34%.

For the compound `O=C(Nc1cccnc1)c1sccc1OCc1c2ccccc2cc2ccccc12` [9c], the inhibition at 1 µM amounted to 79%. With `O=C(Nc1ccc(F)nc1)c1sccc1OCc1ccccc1` [7d], the inhibition at 1 µM worked out at 12%. The same measure, in the same setting: with `O=C(Nc1cccnc1)c1sccc1OCc1cccc2ccccc12` [9a] the figure was 86%. For `O=C(Nc1cccnc1)c1sccc1OCc1cccc2cccnc12` [9d], the inhibition at 1 µM stood at 45%. On the same count and under the same terms, with `Cc1ccncc1NC(=O)c1sccc1OCc1ccccc1` [7f] the figure was -4%. Same read-out and setting: with `O=C(Nc1cccnc1)c1sccc1OS(=O)(=O)c1ccccc1` [compound 10] the figure was -3%. On the same count and under the same terms, with `O=C(Nc1cccnc1)c1sccc1OCc1cc(F)ccc1Cl` [14d] the figure was 79%; with `O=C(Nc1cccnc1)c1sccc1OCc1ccc2ccccc2c1` [9b], 36%; with `O=C(Nc1cnccc1Cl)c1sccc1OCc1ccccc1` [7b], 7%. Consider `O=C(Nc1cccnc1)c1scc(Br)c1OCc1ccccc1` [5f], for which the inhibition at 1 µM amounted to 42%. Consider `O=C(Nc1cncc(F)c1)c1sccc1OCc1ccccc1` [7c], for which the inhibition at 1 µM was determined as 56%. Same read-out and setting: the same measure for `CCCCCCCCOc1ccsc1C(=O)Nc1cccnc1` [9e]: -11%; for `O=C(Nc1ccnnc1)c1sccc1OCc1ccccc1` [7j]: -16%; for `CN(C(=O)c1sccc1OCc1ccccc1)c1cccnc1` [compound 6]: 28%. Same read-out and setting: with `Cc1ncccc1NC(=O)c1sccc1OCc1ccccc1` [7e] the figure was 3%; with `O=C(Nc1ccccc1)c1sccc1OCc1ccccc1` [7k], 3%.

In another test the target is T2, human SMS1 (Homo sapiens, UniProt Q86VZ5).
T2 sequence (Q86VZ5 1-413): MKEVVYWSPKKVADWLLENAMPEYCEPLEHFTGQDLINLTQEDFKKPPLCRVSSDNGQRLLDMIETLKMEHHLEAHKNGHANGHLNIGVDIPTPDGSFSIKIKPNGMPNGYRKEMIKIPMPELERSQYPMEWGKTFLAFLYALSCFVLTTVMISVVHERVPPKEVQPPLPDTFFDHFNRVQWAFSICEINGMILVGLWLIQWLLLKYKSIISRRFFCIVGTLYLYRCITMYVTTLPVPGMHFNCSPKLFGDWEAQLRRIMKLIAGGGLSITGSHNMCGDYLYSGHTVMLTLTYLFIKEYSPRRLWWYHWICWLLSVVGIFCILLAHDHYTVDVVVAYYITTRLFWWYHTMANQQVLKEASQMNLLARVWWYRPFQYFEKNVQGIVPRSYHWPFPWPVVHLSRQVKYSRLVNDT
Kind of test: purified SMS enzyme inhibitory assay in vitro. The test is classed as biochemical.
Conditions: not given
As a reminder, the IC50 is the concentration that inhibits the measured activity by half. Read a high IC50 as a need for much substance. On to `O=C(Nc1cccnc1)c1sccc1OCc1cc(F)ccc1Cl` [14d], for which the IC50 is 102 µM.

The test is the same for the next values; noted with them: read-out: SMS1 Inhibition @ 100 μmol/L (%).
`Cc1nc(OCc2ccccc2)c(C(=O)Nc2cccnc2)s1` [5d]: the inhibition at 100 µM amounted to 10%. `Cc1ccc(NC(=O)c2sccc2OCc2ccccc2)cn1` [7h]: the inhibition at 100 µM was 22%. Still for that read-out and setting: with `Cc1cc(OCc2ccccc2)c(C(=O)Nc2cccnc2)s1` [5c] the figure was -14%; with `O=C(Nc1cccnc1)c1sccc1OCc1c2ccccc2cc2ccccc12` [9c], 5%.

Consider `O=C(Nc1ccc(F)nc1)c1sccc1OCc1ccccc1` [7d], for which the inhibition at 100 µM came out at 57%. Turning to `O=C(Nc1cccnc1)c1sccc1OCc1cccc2ccccc12` [9a], the inhibition at 100 µM came to 39%. Same read-out and setting: with `O=C(Nc1cccnc1)c1sccc1OCc1cccc2cccnc12` [9d] the figure was 21%. On the same count and under the same terms, the same measure for `Cc1ccncc1NC(=O)c1sccc1OCc1ccccc1` [7f]: -17%; for `O=C(Nc1cccnc1)c1sccc1OCc1cc(F)ccc1Cl` [14d]: 53%; for `O=C(Nc1cccnc1)c1sccc1OCc1ccc2ccccc2c1` [9b]: 42%. Turning to `O=C(Nc1cnccc1Cl)c1sccc1OCc1ccccc1` [7b], the inhibition at 100 µM was -39%. Same read-out and setting: with `O=C(Nc1cccnc1)c1scc(Br)c1OCc1ccccc1` [5f] the figure was 14%.

For the compound `O=C(Nc1cccnc1)c1ncccc1OCc1ccccc1` [5b], the inhibition at 100 µM is -18%. The same measure, in the same setting: with `O=C(Nc1cncc(F)c1)c1sccc1OCc1ccccc1` [7c] the figure was 52%; with `CCCCCCCCOc1ccsc1C(=O)Nc1cccnc1` [9e], 67%. As to `O=C(Nc1ccnnc1)c1sccc1OCc1ccccc1` [7j], the inhibition at 100 µM amounted to 5%. On the same count and under the same terms, with `CN(C(=O)c1sccc1OCc1ccccc1)c1cccnc1` [compound 6] the figure was 20%. Still for that read-out and setting: the same measure for `Cc1ncccc1NC(=O)c1sccc1OCc1ccccc1` [7e]: -20%; for `O=C(Nc1cccnc1)c1sc([N+](=O)[O-])cc1OCc1ccccc1` [5e]: -4%.
